Measured values as given in article PMC6225228, “Design, Synthesis and Evaluation of N-pyrazinylbenzamides as Potential Antimycobacterial Agents” (Molecules : A Journal of Synthetic Chemistry and Natural …, 2018).
≈ marks a conversion by molar mass, not a printed value. Read-outs that look alike come from different tables or passages of the source.

Key:
[1] = test system: Candida glabrata 20/I; assay: Antifungal microdilution broth, CG; format: cell-based; settings: Nakaseomyces glabratus, 20/I, read-out: MIC CG
[2] = test system: Mycobacterium smegmatis CCM 4622 (ATCC 607); assay: Antimycobacterial microdilution, M. smegmatis; format: cell-based; settings: Mycolicibacterium smegmatis, read-out: M. smeg. ATCC 607 MIC
[3] = test system: M. kansasii CNCTC My 235/80 (ATCC 12478); assay: Antimycobacterial microdilution MABA, M. kansasii; format: cell-based, Mycobacterium kansasii; settings: for MIC: Mycobacterium kansasii, ATCC12478, pH 6.6, read-out: M. kans. ATCC 12478 MIC, Middlebrook 7H9 with OADC, pH 6.6, MABA
[4] = test system: Lichtheimia corymbifera 272; assay: Antifungal microdilution broth, LC; format: cell-based; settings: read-out: MIC LC
[5] = human, HepG2 cells
[6] = test system: Candida tropicalis 156; assay: Antifungal microdilution broth, CT; format: cell-based; settings: read-out: MIC CT
[7] = test system: Mycobacterium tuberculosis H37Rv CNCTC My 331/88 (ATCC 27294); assay: Antimycobacterial microdilution MABA, M. tuberculosis; format: cell-based; settings: for MIC: Mycobacterium tuberculosis; for Mtb H37Rv ATCC 27294 MIC: Middlebrook 7H9 with OADC growth supplement, pH = 6.6, MABA
[8] = test system: Candida albicans ATCC 44859; assay: Antifungal microdilution broth, CA; format: cell-based; settings: Candida albicans, read-out: MIC CA
[9] = test system: eight fungal strains of clinical importance; assay: Antifungal microdilution, all tested fungal strains; format: cell-based; settings: Trichophyton interdigitale, read-out: MIC, all tested fungal strains
[10] = test system: Staphylococcus epidermidis H 6966/08; assay: Antibacterial microdilution broth, SE; format: cell-based; settings: Staphylococcus epidermidis, read-out: MIC SE
[11] = test system: Escherichia coli CCM 4517; assay: Antibacterial microdilution broth, EC; format: cell-based; settings: Escherichia coli, read-out: MIC EC
[12] = test system: Pseudomonas aeruginosa CCM 1961; assay: Antibacterial microdilution broth, PA; format: cell-based; settings: Pseudomonas aeruginosa, read-out: MIC PA
[13] = test system: Trichosporon asahii 1188; assay: Antifungal microdilution broth, TA; format: cell-based; settings: read-out: MIC TA
[14] = test system: Candida krusei E28; assay: Antifungal microdilution broth, CK; format: cell-based; settings: Pichia kudriavzevii, read-out: MIC CK
[15] = test system: Trichophyton interdigitale 445; assay: Antifungal microdilution broth, TI; format: cell-based; settings: read-out: MIC TI
[16] = test system: Staphylococcus aureus CCM 4516/08; assay: Antibacterial microdilution broth, SA; format: cell-based
[17] = test system: Aspergillus fumigatus 231; assay: Antifungal microdilution broth, AF; format: cell-based; settings: read-out: MIC AF
[18] = test system: M. avium ssp. avium CNCTC My 80/72 (ATCC 15769); assay: Antimycobacterial microdilution MABA, M. avium; format: cell-based, Mycobacterium avium; settings: for MIC: Mycobacterium avium, ATCC15769, pH 6.6, read-out: M. avium ATCC 15769 MIC
[19] = test system: Enterococcus sp. J 14365/08; assay: Antibacterial microdilution broth, EF; format: cell-based; settings: Enterococcus, read-out: MIC EF
[20] = test system: Staphylococcus aureus H 5996/08 methicillin resistant; assay: microbe, parasite or virus in culture; format: cell-based; settings: for MIC: Staphylococcus aureus, MRSA, read-out: MIC MRSA
[21] = Lichtheimia corymbifera, 272, 24 h
[22] = Lichtheimia corymbifera, 272, 48 h
[23] = read-out: Mtb H37Rv ATCC 27294 MIC, Middlebrook 7H9 with OADC growth supplement, pH = 6.6, MABA
[24] = read-out: Mtb MIC, molar concentration
[25] = Trichosporon asahii, 1188, 24 h
[26] = Trichosporon asahii, 1188, 48 h
[27] = Trichophyton interdigitale, 445, 72 h
[28] = Trichophyton interdigitale, 445, 120 h
[29] = Staphylococcus aureus, CCM4516, 24 h, read-out: MIC SA, 24 h
[30] = Staphylococcus aureus, CCM4516, 48 h, read-out: MIC SA, 48 h
[31] = Aspergillus fumigatus, 231, 24 h
[32] = Aspergillus fumigatus, 231, 48 h
[33] = Middlebrook 7H9 with OADC, pH 6.6, MABA

Row | Compound | MIC ([1]; 24 h) [µM] | MIC ([1]; 48 h) [µM] | MIC [2] [µg/mL] | MIC [3] [µg/mL] | MIC [4, 21] [µM] | MIC [4, 22] [µM] | MIC ([6]; Candida tropicalis, 156, 24 h) [µM] | MIC ([6]; Candida tropicalis, 156, 48 h) [µM] | MIC [7, 23] [µg/mL] | MIC ([8]; ATCC44859, 24 h) [µM] | MIC ([8]; ATCC44859, 48 h) [µM] | MIC ([10]; H6966/08, 24 h) [µM] | MIC ([10]; H6966/08, 48 h) [µM] | MIC ([11]; CCM4517, 24 h) [µM] | MIC ([11]; CCM4517, 48 h) [µM] | MIC ([12]; CCM1961, 72 h) [µM] | MIC ([12]; CCM1961, 120 h) [µM] | MIC [13, 25] [µM] | MIC [13, 26] [µM] | MIC ([14]; E28, 24 h) [µM] | further results
1 | CC(=O)Oc1ccccc1C(=O)Nc1cnc(Cl)cn1 [Compound 2b-Ac] | 250 (≈ 72.9 µg/mL) | 250 (≈ 72.9 µg/mL) | 31.2 (≈ 107 µM) | 12.5 (≈ 42.9 µM) | 125 (≈ 36.5 µg/mL) | 125 (≈ 36.5 µg/mL) | 250 (≈ 72.9 µg/mL) | 250 (≈ 72.9 µg/mL) | 12.5 | 125 (≈ 36.5 µg/mL) | 125 (≈ 36.5 µg/mL) | 125 (≈ 36.5 µg/mL) | 250 (≈ 72.9 µg/mL) | > 250 | > 250 | > 250 | > 250 | 125 (≈ 36.5 µg/mL) | 125 (≈ 36.5 µg/mL) | 125 (≈ 36.5 µg/mL) | IC50 at 24 h [5]: 95.4 µM; MIC [7, 24]: 42.9 µM; MIC [9]: 125 to 250 µM (≈ 36.5 to 72.9 µg/mL); MIC ([14]; E28, 48 h): 125 µM (≈ 36.5 µg/mL); MIC [15, 27]: 250 µM (≈ 72.9 µg/mL); MIC [15, 28]: 250 µM (≈ 72.9 µg/mL); MIC [16, 29]: 62.5 µM (≈ 18.2 µg/mL); MIC [16, 30]: 125 µM (≈ 36.5 µg/mL); MIC [17, 31]: 250 µM (≈ 72.9 µg/mL); MIC [17, 32]: 250 µM (≈ 72.9 µg/mL); MIC [18]: 50 µg/mL (≈ 171 µM); MIC ([19]; SP.J14365/08, 24 h): 250 µM (≈ 72.9 µg/mL); MIC ([19]; SP.J14365/08, 48 h): > 250 µM; MIC ([20]; 24 h): 125 µM (≈ 36.5 µg/mL); MIC ([20]; 48 h): 250 µM (≈ 72.9 µg/mL)
2 | Cc1ccc(C(=O)Nc2cnc(Cl)cn2)cc1 [Compound 2h] | > 125 | > 125 | ≥ 500 | > 100 | > 125 | > 125 | > 125 | > 125 | 3.13 to 6.25 | > 125 | > 125 | > 125 | > 125 | > 125 | > 125 | > 125 | > 125 | > 125 | > 125 | > 125 | M. kans. ATCC 12478 MIC [3, 33]: >100 µg/mL; IC50 at 24 h [5]: > 250 µM; Mtb H37Rv ATCC 27294 MIC [7]: 6.25 µg/mL; MIC [7, 24]: 25.2 µM; MIC ([14]; E28, 48 h): > 125 µM; MIC [15, 27]: > 125 µM; MIC [15, 28]: > 125 µM; melting point: 186.4 to 187.1 °C; MIC ([16]; 24 h, read-out: MIC SA): >125 µM; MIC [16, 29]: > 125 µM; MIC [16, 30]: > 125 µM; MIC [17, 31]: > 125 µM; MIC [17, 32]: > 125 µM; M. avium ATCC 15769 MIC [18, 33]: >100 µg/mL; MIC [18]: > 100 µg/mL; MIC ([19]; SP.J14365/08, 24 h): > 125 µM; MIC ([19]; SP.J14365/08, 48 h): > 125 µM; MIC ([20]; 24 h): > 125 µM; MIC ([20]; 48 h): > 125 µM
3 | O=C(Nc1cnc(Cl)cn1)c1ccc(O)cc1 [Compound 2d] | > 500 | > 500 | ≥ 500 | > 100 | > 500 | > 500 | > 500 | > 500 | > 100 | 500 (≈ 125 µg/mL) | > 500 | 500 (≈ 125 µg/mL) | 500 (≈ 125 µg/mL) | > 500 | > 500 | > 500 | > 500 | > 500 | > 500 | > 500 | Mtb H37Rv ATCC 27294 MIC [7]: >100 µg/mL; MIC [9]: ≥ 500 µM; MIC ([14]; E28, 48 h): > 500 µM; MIC [15, 27]: > 500 µM; MIC [15, 28]: > 500 µM; melting point: 210.9 to 212.6 °C; MIC [16, 29]: 31.2 µM (≈ 7.8 µg/mL); MIC [16, 30]: 31.2 µM (≈ 7.8 µg/mL); MIC [17, 31]: > 500 µM; MIC [17, 32]: > 500 µM; MIC [18]: > 100 µg/mL; MIC ([19]; SP.J14365/08, 24 h): > 500 µM; MIC ([19]; SP.J14365/08, 48 h): > 500 µM; MIC MRSA ([20]; 24 h): >500 µM; MIC MRSA ([20]; 48 h): >500 µM; MIC ([20]; 24 h): > 500 µM; MIC ([20]; 48 h): > 500 µM
